Reference: patent US9169241B2, “Quinolinyloxyphenylsulfonamides” (Max-Planck-Gesellschaft Zur Forderung der Wissenschaften …, priority 2009, dated 2015)
Where two headings read alike, the source gives them in different places.

Key:
Type in all cases: cell-based
SF763 = test: Apoptosis assay (Cellomics, nucleus condensation); details: Table III, read-out: Apoptosis induction in SF763
Excerpt: (§1) The Cellomics BioApplication (Thermo Fischer Cellomics Products, Pittsburgh, Pa.) is an automated image analysis algorithm that provides detailed analysis of phenotypes related to apoptosis. As one of the most prominent characteristics of apoptotics cell a nucleus condensation takes place. This can be measured fluorescence signal intensity using a CCD camera on fully automated microscope system. The Cellomics system is able to quantify the fluorescence intensity per single nucleus and calculates the variation of signal intensity in each cell population. […] Additionally the number of detected cell decreases normally in apoptotic cell populations. In detail 5000 cell per 96 well were labeled with DNA intercalating dye (Hoechst 33342, Sigma, Steinheim, Germany) to visualize the nucleus in a fluorescence microscope under live conditions. The apoptosis assay was performed 24 h and 48 h after addition of compound at concentrations 12.5 μM, 6.25 μM, 3.125 μM, 1.56 μM, 0.78 μM, 0.39 μM as well as DMSO control for 48 h.

U118 = test: Apoptosis assay (Cellomics, nucleus condensation); details: Table III, read-out: Apoptosis induction in U118
Excerpt: as §1

U138 = test: Apoptosis assay (Cellomics, nucleus condensation); details: Table III, read-out: Apoptosis induction in U138
Excerpt: as §1

Hs578T [1] = test: Apoptosis assay (Cellomics, nucleus condensation); details: Homo sapiens, Hs-578T, Table III, read-out: Apoptosis induction in Hs578T
Excerpt: as §1

C8161 = test: Apoptosis assay (Cellomics, nucleus condensation); details: Homo sapiens, Table III, read-out: Apoptosis induction in C8161
Excerpt: as §1

SF126 = test: Apoptosis assay (Cellomics, nucleus condensation); details: Homo sapiens, SF-126, Table III, read-out: Apoptosis induction in SF126
Excerpt: as §1

indicated cell line = test: Wound healing migration assay (Table IV); details: compounds at 12.5, 6.25, 3.125 μM, 48 h-72 h
Description: This method mimics cell migration during wound healing in vivo. The basic steps involve creating a “wound” in a cell monolayer, capturing the images at the beginning and at regular intervals during cell migration to close the wound, and comparing the images to quantify the migration rate of the cells. In detail, 150000 cell/24 well have been seeded and allowed to form a monolayer overnight. Subsequently a “wound” or “scratch” has been performed with a 1000 μl pipette tip. The STDV of wound size is normally below 10% at time point t0. The assay was stopped by fixation with 0.05% Crystal violet/20% methanol when control scratches were closed. The assay was terminated between 48 h and 72 h depending on the migration potential of the indicated cell line. The “wounds” were visualized with a Zeiss Axiovert S100 microscope (Carl Zeiss UK, Welwyn Garden City, UK). The tested compounds were used at 12.5 μM, 6.25, 3.125 μM and DMSO control. IC50 values have been calculated as 50% wound size in between t0 and t48 or t72.

tumor cell = test: Matrigel outgrowth assay/branching assay (Table Va)
Description: The Matrigel outgrowth assay is based on the ability of tumor cell to penetrate a solid gel of extracellular matrix proteins mimicking the metastasis formation in vivo. While cells with low invasive potential appear as roundish cell or cell cluster, cells with high invasive potential penetrate the Matrigel and form polymorphic structures. In detail 65 μl of Matrigel matrix (Matrigel™ Matrix, BD Biosciences, Bedford, Mass., USA) with a concentration of 3 mg/ml have been polymerized in 96 well plates for 1 h at 37° C. Subsequently 5000 cell/well were seeded into each well containing cell culture medium and indicated compound with concentrations of 3.125 μM, 1.56 μM and 0.78 μM as well as DMSO control. After 48 h, 72 h and 96 h images of cell were taken on an inverted microscope using a 5× objective (Zeiss Axiovert S100 microscope Carl Zeiss UK, Welwyn Garden City, UK). Only compound concentrations were total branching inhibition was evident were accounted as positive. Method was used as previously described, with some modifications (Thompson E W, et al. Association of increased basement membrane invasiveness with absence of estrogen receptor and expression of vimentin in human breast cancer cell lines. J Cell Physiol 1992; 150:534-44).

cells = test: Boyden chamber migration assay (Table VI); details: Homo sapiens, Hs-578T, 16 h, Hs578T cells; 16 h migration
Description: The Boyden chamber assay is based on a chamber of two medium-filled compartments separated by a microporous membrane of 8 μM (Cell culture insert 8.0 μM pore size, BD Biosciences, Bedford, Mass.). The boyden chamber migration assays were carried out according to the supplier's instructions. In general, 20000 cells are placed in the upper compartment with medium containing 0% FCS plus 0.1% BSA and are allowed to migrate 16 h through the pores of the membrane into the lower compartment, which is filled with cell culture medium containing 10% FCS as chemotactic agents. The cells remaining in the insert were removed with a cotton swab, and the cells on the bottom of the filter were fixed and counted. (Zhang Y X, et al. AXL is a potential target for therapeutic intervention in breast cancer progression. Cancer Res. 2008; 68:1905-15).

viable cells in culture = test: Cell viability assay at 10 μM (CellTiter-Glo, Table VII); details: compound 10 μM, 72 h;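 note: graded A 0-20%; B 21-40%; C 41-60%; D over 60% viable cells relative to DMSO control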
Procedure, shortened: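 Viable cell number was measured with the CellTiter-Glo Luminescent Cell Viability Assay (Promega), following the manufacturer's protocol, which quantifies ATP as a marker of metabolically active cells. In 96-well plates, 1000 cells/well in 100 μl medium were exposed to compound at 10 μM, or to DMSO control, for 72 h. Values were calculated relative to DMSO-control ATP.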

Hs578T [2] = test: Matrigel outgrowth assay/branching assay; details: Homo sapiens, Hs-578T; HS578T cell line; Table Ib; read-out: Total branching inhibition in Matrigel HS578T
Procedure, shortened: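 Read-out: microscopic images of invasive branching structures at 48 h, 72 h and 96 h. Cells sat on a 3 mg/ml Matrigel layer (set 1 h, 37° C) with compound at 3.125, 1.56 and 0.78 μM or DMSO. A concentration counts as positive only with complete branching inhibition.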

[3] = Homo sapiens, C8161 cells, read-out: IC50 Wound healing Assay C8161
[4] = SF763 cells, read-out: IC50 Wound healing Assay SF763
[5] = Homo sapiens, C8161 cells, read-out: Total branching inhibition in Matrigel C8161
[6] = Homo sapiens, Hs-578T, Hs578T cells, read-out: Total branching inhibition in Matrigel Hs578T
[7] = U118 cells, read-out: Total branching inhibition in Matrigel U118
[8] = U138 cells, read-out: Total branching inhibition in Matrigel U138
[9] = Homo sapiens, HCT-116, HCT116 def, read-out: percentage (%) of viable cells HCT 116def
[10] = Homo sapiens, HCT-116, HCT116 wt, read-out: percentage (%) of viable cells HCT 116wt
[11] = Homo sapiens, HT-29, HT29, read-out: percentage (%) of viable cells HT29
[12] = Homo sapiens, NCI-H358, H358, read-out: percentage (%) of viable cells H358
[13] = Homo sapiens, NCI-H1650, H1650, read-out: percentage (%) of viable cells H1650
[14] = Homo sapiens, NCI-H1666, H1666, read-out: percentage (%) of viable cells H1666
[15] = Homo sapiens, NCI-H1975, H1975, read-out: percentage (%) of viable cells H1975
[16] = Homo sapiens, NCI-H1993, H1993, read-out: percentage (%) of viable cells H1993
[17] = Homo sapiens, A549, read-out: percentage (%) of viable cells A549
[18] = Homo sapiens, HCC827, read-out: percentage (%) of viable cells HCC827
[19] = Homo sapiens, SW480, read-out: percentage (%) of viable cells SW480
[20] = RKO, read-out: percentage (%) of viable cells RKO

Structure (SMILES) | IC50 (SF763) [µM] | IC50 (U118) [µM] | IC50 (U138) [µM] | IC50 (Hs578T [1]) [µM] | IC50 (C8161) [µM] | IC50 (SF126) [µM] | IC50 (indicated cell line; [3]) [µM] | IC50 (indicated cell line; [4]) [µM] | IC50 (tumor cell; [5]) [µM] | IC50 (tumor cell; [6]) [µM] | IC50 (tumor cell; [7]) [µM] | IC50 (tumor cell; [8]) [µM] | IC50 (cells) [µM] | viability at 10 µM (viable cells in culture; [9]) [%] | viability at 10 µM (viable cells in culture; [10]) [%] | viability at 10 µM (viable cells in culture; [11]) [%] | viability at 10 µM (viable cells in culture; [12]) [%] | viability at 10 µM (viable cells in culture; [13]) [%] | viability at 10 µM (viable cells in culture; [14]) [%] | viability at 10 µM (viable cells in culture; [15]) [%] | further results
COc1cc2c(Oc3ccc(NS(=O)(=O)c4cc(F)ccc4F)cc3F)ccnc2cc1OCC1CCCNC1 (centres unmarked) [Example 80, 2,5-Difluoro-N-{3-fluoro-4-[6-methoxy-7-(piperidin-3-ylmethoxy)-quinolin-4-yloxy]-phenyl}-benzenesulfonamide] | 12.5 to 50 | ≤ 12.5 | 12.5 to 50 | ≤ 12.5 | 12.5 to 50 | 12.5 to 50 | ≤ 12.5 | ≤ 12.5 | ≤ 5 | ≤ 5 | ≤ 5 | 5 to 50 | ≤ 5 | 21 to 40 | 21 to 40 | 41 to 60 | 0 to 20 | > 60 | 21 to 40 | 0 to 20 | viability at 10 µM (viable cells in culture; [16]): 0 to 20%; viability at 10 µM (viable cells in culture; [17]): > 60%; viability at 10 µM (viable cells in culture; [18]): 21 to 40%; viability at 10 µM (viable cells in culture; [19]): 0 to 20%; viability at 10 µM (viable cells in culture; [20]): 0 to 20%
O=S(=O)(Nc1ccc(Oc2ccnc3cc(OCCCCN4CCOCC4)ccc23)c(F)c1)c1cc(F)ccc1F [Example 84, 2,5-Difluoro-N-{3-fluoro-4-[7-(4-morpholin-4-yl-butoxy)-quinolin-4-yloxy]-phenyl}-benzenesulfonamide] | ≤ 12.5 | ≤ 12.5 | ≤ 12.5 | ≤ 12.5 | ≤ 12.5 | ≤ 12.5 | ≤ 12.5 | 12.5 to 50 | ≤ 5 | ≤ 5 | ≤ 5 | ≤ 5 | ≤ 5 | 0 to 20 | 0 to 20 | 0 to 20 | 0 to 20 | 0 to 20 | 41 to 60 | 21 to 40 | viability at 10 µM (viable cells in culture; [16]): 0 to 20%; viability at 10 µM (viable cells in culture; [17]): > 60%; viability at 10 µM (viable cells in culture; [18]): > 60%; viability at 10 µM (viable cells in culture; [19]): 0 to 20%; viability at 10 µM (viable cells in culture; [20]): 0 to 20%; IC50 (Hs578T [2]): ≤ 10 µM
CN1CCN(CCCOc2ccc3nccc(Oc4ccc(NS(=O)(=O)c5ccccc5C(F)(F)F)cc4F)c3c2)CC1 [Example 85, N-(3-Fluoro-4-{6-[3-(4-methyl-piperazin-1-yl)-propoxy]-quinolin-4-yloxy}-phenyl)-2-trifluoromethyl-benzenesulfonamide] | ≤ 12.5 | 12.5 to 50 | ≤ 12.5 | ≤ 12.5 | ≤ 12.5 | ≤ 12.5 | ≤ 12.5 | 12.5 to 50 | ≤ 5 | ≤ 5 | ≤ 5 | 5 to 50 | ≤ 5 | 21 to 40 | 0 to 20 | 21 to 40 | 21 to 40 | 21 to 40 | 41 to 60 | 21 to 40 | viability at 10 µM (viable cells in culture; [16]): 0 to 20%; viability at 10 µM (viable cells in culture; [17]): 41 to 60%; viability at 10 µM (viable cells in culture; [18]): 0 to 20%; viability at 10 µM (viable cells in culture; [19]): 0 to 20%; viability at 10 µM (viable cells in culture; [20]): 0 to 20%; IC50 (Hs578T [2]): ≤ 10 µM
